Test results reported in ChEMBL document CHEMBL1201862, “PubChem BioAssay data set” (2004).
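Where inhibition never reached the appropriate level, the endpoint shown equals the highest concentration tested. Otherwise, values were interpolated linearly from a five-concentration, 48-hour dose response in 96-well plates. At the GI50, growth is halved.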 Calls of active or inactive are those of the source. No stated cut-off is given here; in the data, active = GI50 up to about 1.1 µM and inactive = higher.

Legend:
Test in all cases: growth of human tumour cells (NCI), 48 h
MDA-N = test system: MDA-N
SW-620 = test system: SW-620
NCI-H460 = test system: NCI-H460
Malme-3M = test system: Malme-3M
EKVX = test system: EKVX
HCT-116 = test system: HCT-116
SK-MEL-2 = test system: SK-MEL-2
COLO 205 = test system: COLO 205
SK-MEL-28 = test system: SK-MEL-28
HL-60 = test system: HL-60
MCF7 = test system: MCF7
SK-OV-3 = test system: SK-OV-3
RXF 393 = test system: RXF 393
A498 = test system: A498
HOP-92 = test system: HOP-92
MOLT-4 = test system: MOLT-4
OVCAR-4 = test system: OVCAR-4
MDA-MB-231 = test system: MDA-MB-231
UACC-257 = test system: UACC-257
HT-29 = test system: HT-29

Compound	GI50 (MDA-N)	GI50 (SW-620)	GI50 (NCI-H460)	GI50 (Malme-3M)	GI50 (EKVX)	GI50 (HCT-116)	GI50 (SK-MEL-2)	GI50 (COLO 205)	GI50 (SK-MEL-28)	GI50 (HL-60)	GI50 (MCF7)	GI50 (SK-OV-3)	GI50 (RXF 393)	GI50 (A498)	GI50 (HOP-92)	GI50 (MOLT-4)	GI50 (OVCAR-4)	GI50 (MDA-MB-231)	GI50 (UACC-257)	GI50 (HT-29)
COc1ccc2c(c1)nc1n2C(N)=Nc2ccccc2S1	16.9 µM (inactive)	28.5 µM (inactive)	12.8 µM (inactive)	62.2 µM (inactive)	28.5 µM (inactive)	5.3 µM (inactive)	> 100 µM (inactive)	6.08 µM (inactive)	> 80.5 µM (inactive)	2.64 µM (inactive)	11.3 µM (inactive)	67 µM (inactive)	30 µM (inactive)	37.1 µM (inactive)	3.79 µM (inactive)	3.69 µM (inactive)	34.4 µM (inactive)	52.5 µM (inactive)	32.5 µM (inactive)	17.7 µM (inactive)
C/C1=C\CC[C@@]2(C)O[C@@H]2C[C@@H]2[C@H](C/C(C)=C/CC1)OC(=O)[C@]21CO1	61.1 µM (inactive)	68.7 µM (inactive)	20.7 µM (inactive)	> 100 µM (inactive)	> 100 µM (inactive)	41.5 µM (inactive)	> 100 µM (inactive)	> 100 µM (inactive)	> 100 µM (inactive)	> 100 µM (inactive)	41.5 µM (inactive)	> 100 µM (inactive)	> 100 µM (inactive)	> 100 µM (inactive)	> 100 µM (inactive)	22 µM (inactive)	> 100 µM (inactive)	> 100 µM (inactive)	> 100 µM (inactive)	69.3 µM (inactive)
COc1ccc(-c2cc(=O)c3c(O)cc(O)cc3o2)cc1OC	> 100 µM (inactive)	> 100 µM (inactive)	44.7 µM (inactive)	> 100 µM (inactive)	83.8 µM (inactive)	28.2 µM (inactive)	> 100 µM (inactive)	> 100 µM (inactive)	> 100 µM (inactive)	39.9 µM (inactive)	> 100 µM (inactive)	47.4 µM (inactive)	46.3 µM (inactive)	4.57 µM (inactive)	2.3 µM (inactive)	44 µM (inactive)	> 100 µM (inactive)	> 100 µM (inactive)	> 100 µM (inactive)	81.8 µM (inactive)
O=[N+]([O-])c1ccc(-n2nc3ccc4c(no[n+]4[O-])c3[n+]2[O-])c([N+](=O)[O-])c1	2.08 µM (inactive)	2.1 µM (inactive)	5.55 µM (inactive)	2.45 µM (inactive)	12.2 µM (inactive)	1.91 µM (inactive)	3.56 µM (inactive)	1.54 µM (inactive)	2.51 µM (inactive)	1.95 µM (inactive)	1.9 µM (inactive)	9.51 µM (inactive)	3.27 µM (inactive)	5.45 µM (inactive)	2.96 µM (inactive)	1.95 µM (inactive)	1.68 µM (inactive)	2.27 µM (inactive)	1.75 µM (inactive)	4.69 µM (inactive)
C[C@H]1C2Cc3cc(O)ccc3[C@@]1(C)CCN2CCc1ccc(N)cc1	20.7 µM (inactive)	15.3 µM (inactive)	30.3 µM (inactive)	18.8 µM (inactive)	> 100 µM (inactive)	15.9 µM (inactive)	41.9 µM (inactive)	28.6 µM (inactive)	18.6 µM (inactive)	38.3 µM (inactive)	15.2 µM (inactive)	> 100 µM (inactive)	52.7 µM (inactive)	> 100 µM (inactive)	1.71 µM (inactive)	23.7 µM (inactive)	55.6 µM (inactive)	34.9 µM (inactive)	18.6 µM (inactive)	15.5 µM (inactive)
CCOP(=O)(CCC(O)CNc1nc(N)nc(Cl)c1/N=N/c1ccc(Cl)cc1)OCC (stereo not given)	12.4 µM (inactive)	15.9 µM (inactive)	11.1 µM (inactive)	5.2 µM (inactive)	18.8 µM (inactive)	14.7 µM (inactive)	11.6 µM (inactive)	12.8 µM (inactive)	11.6 µM (inactive)	3.5 µM (inactive)	11.5 µM (inactive)	17.7 µM (inactive)	6.31 µM (inactive)	10.1 µM (inactive)	0.377 µM (active)	6.95 µM (inactive)	5.24 µM (inactive)	19.3 µM (inactive)	13.6 µM (inactive)	15.3 µM (inactive)
COc1cc2c(cc1O)Cc1c-2[n+](C)cc2cc(OC)c(OC)cc12	34.9 µM (inactive)	33.4 µM (inactive)	3.28 µM (inactive)	> 86.5 µM (inactive)	> 90.8 µM (inactive)	15.3 µM (inactive)	> 100 µM (inactive)	> 74.3 µM (inactive)	> 89.9 µM (inactive)	2.75 µM (inactive)	15.2 µM (inactive)	> 35.6 µM (inactive)	22.9 µM (inactive)	> 64.1 µM (inactive)	> 77.3 µM (inactive)	0.653 µM (active)	> 63.2 µM (inactive)	> 100 µM (inactive)	> 68.9 µM (inactive)	> 83 µM (inactive)
CC(=O)OCC1OC(n2c(N)c(C#N)c(-c3ccccc3)c(C#N)c2=S)C(OC(C)=O)C(OC(C)=O)C1OC(C)=O (stereo not given)	> 100 µM (inactive)	> 100 µM (inactive)	> 79.8 µM (inactive)	> 100 µM (inactive)	> 74.3 µM (inactive)	> 100 µM (inactive)	> 58.9 µM (inactive)	> 100 µM (inactive)	> 100 µM (inactive)	> 100 µM (inactive)	> 100 µM (inactive)	54.2 µM (inactive)	23.2 µM (inactive)	> 64.4 µM (inactive)	11.8 µM (inactive)	> 100 µM (inactive)	> 49.8 µM (inactive)	34 µM (inactive)	> 100 µM (inactive)	> 100 µM (inactive)
COc1ccc2c(c1)-c1nn(CCN(C)C)c3ccc(C(=O)NCCCN(C)CCCNC(=O)c4ccc5c6c(c7cc(OC)ccc7nc46)NN5CCN(C)C)c(c13)N2	0.0361 µM (active)	0.018 µM (active)	0.0187 µM (active)	0.106 µM (active)	0.143 µM (active)	< 0.01 µM (active)	0.0184 µM (active)	0.0169 µM (active)	0.0561 µM (active)	0.204 µM (active)	0.0202 µM (active)	0.0861 µM (active)	0.0366 µM (active)	0.0859 µM (active)	0.0478 µM (active)	< 0.01 µM (active)	0.0352 µM (active)	0.114 µM (active)	0.0702 µM (active)	0.0213 µM (active)
[O-][N+]1=[N+]([O-])[C@@H](c2ccccc2)[C@H]1c1ccccc1	16.6 µM (inactive)	14.5 µM (inactive)	22.4 µM (inactive)	17.7 µM (inactive)	18.3 µM (inactive)	16.6 µM (inactive)	17.9 µM (inactive)	19.3 µM (inactive)	16.6 µM (inactive)	2.05 µM (inactive)	15.7 µM (inactive)	32.3 µM (inactive)	14.8 µM (inactive)	27.1 µM (inactive)	15.6 µM (inactive)	21.3 µM (inactive)	25 µM (inactive)	20.2 µM (inactive)	13.1 µM (inactive)	18.3 µM (inactive)
O=C(CSc1nc2ccccc2c(=O)n1-c1ccccc1)N/N=C1\C(=O)Nc2ccc(F)cc21	3.47 µM (inactive)	4.24 µM (inactive)	2.19 µM (inactive)	2.01 µM (inactive)	2.43 µM (inactive)	2.02 µM (inactive)	1.88 µM (inactive)	2.64 µM (inactive)	2.08 µM (inactive)	1.82 µM (inactive)	2.18 µM (inactive)	1.81 µM (inactive)	1.95 µM (inactive)	1.85 µM (inactive)	1.84 µM (inactive)	1.61 µM (inactive)	1.82 µM (inactive)	2.01 µM (inactive)	2.47 µM (inactive)	3.06 µM (inactive)
Cc1c(N)nc([C@H](CC(N)=O)NC[C@H](N)C(N)=O)nc1C(=O)N[C@H](C(=O)N[C@H](C)[C@@H](O)CC(=O)N[C@H](C(=O)NC(O[C@@H]1O[C@@H](C)[C@@H](N)[C@@H](O)[C@H]1O)C(O)c1nc(-c2nc(C(=O)NCCC[S+](C)C)cs2)cs1)[C@@H](C)O)[C@H](O[C@@H]1O[C@@H](CO)[C@@H](O)[C@H](O)[C@@H]1O[C@H]1O[C@H](CO)[C@@H](O)[C@H](OC(N)=O)[C@@H]1O)c1c[nH]cn1 (stereo not given in full)	> 100 µM (inactive)	> 100 µM (inactive)	2.79 µM (inactive)	37.2 µM (inactive)	> 100 µM (inactive)	15.1 µM (inactive)	> 100 µM (inactive)	> 100 µM (inactive)	> 100 µM (inactive)	> 100 µM (inactive)	39.4 µM (inactive)	> 100 µM (inactive)	25.8 µM (inactive)	67.1 µM (inactive)	24.6 µM (inactive)	38.6 µM (inactive)	> 100 µM (inactive)	> 100 µM (inactive)	> 100 µM (inactive)	82.8 µM (inactive)
O=S(=O)(c1cccc(C(F)(F)F)c1)N1c2ccccc2-n2cccc2C1c1cccnc1 (stereo not given)	26.9 µM (inactive)	16.5 µM (inactive)	22.9 µM (inactive)	21.4 µM (inactive)	> 100 µM (inactive)	18.8 µM (inactive)	17.7 µM (inactive)	16.5 µM (inactive)	29.4 µM (inactive)	1.1 µM (active)	13.9 µM (inactive)	> 46.9 µM (inactive)	> 38.7 µM (inactive)	23.3 µM (inactive)	26.9 µM (inactive)	4.18 µM (inactive)	24.8 µM (inactive)	> 36.8 µM (inactive)	> 36.4 µM (inactive)	18.1 µM (inactive)
